Reference: PubChem BioAssay AID256 (DTP/NCI, 2004)
Toxic doses and inconclusive results are not listed.

Test system: CD2F1 mice, L1210 leukemia ip, survival T/C
Test: NCI In Vivo Anticancer Drug Screen. Data for tumor model L1210 Leukemia (intraperitoneal) in CD2F1 (CDF1) mice
Conditions: higher = longer survival
In short: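 Mice carrying a transplanted tumor received test compound or vehicle alone. The value is the measurement in the treated group divided by that in the vehicle-treated control group.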

[1] = endpoint: mean survival time, dose: 100.0 mg/kg/injection, schedule: Q01DX001 (ip), vehicle: saline with Tween-80
[2] = endpoint: mean survival time, dose: 100.0 mg/kg/injection, schedule: Q01DX009 (ip), vehicle: saline with Tween-80
[3] = endpoint: mean survival time, dose: 100.0 mg/kg/injection, schedule: Q04DX003 (ip), vehicle: saline with Tween-80
[4] = endpoint: mean survival time, dose: 200.0 mg/kg/injection, schedule: Q01DX001 (ip), vehicle: saline with Tween-80
[5] = endpoint: mean survival time, dose: 200.0 mg/kg/injection, schedule: Q01DX009 (ip), vehicle: saline with Tween-80
[6] = endpoint: mean survival time, dose: 200.0 mg/kg/injection, schedule: Q04DX003 (ip), vehicle: saline with Tween-80
[7] = endpoint: mean survival time, dose: 400.0 mg/kg/injection, schedule: Q01DX001 (ip), vehicle: saline with Tween-80
[8] = endpoint: mean survival time, dose: 400.0 mg/kg/injection, schedule: Q01DX009 (ip), vehicle: saline with Tween-80
[9] = endpoint: mean survival time, dose: 400.0 mg/kg/injection, schedule: Q04DX003 (ip), vehicle: saline with Tween-80

## Clc1nc(Oc2ccccc2)nc(-c2cn(-c3ccccc3)c3ccccc23)n1
[1]
  T/C: 98 % of control
[2]
  T/C: 95 % of control
[3]
  T/C: 102 % of control
[4]
  T/C: 102 % of control
[5]
  T/C: 101 % of control
[6]
  T/C: 98 % of control
[7]
  T/C: 102 % of control
[8]
  T/C: 97 % of control
[9]
  T/C: 101 % of control

## O=C(/C=C/c1cccnc1)/C=C/c1cccnc1
endpoint: mean survival time, dose: 6.25 mg/kg/injection, schedule: Q01DX009 (ip), vehicle: other
  T/C: 105 % of control
endpoint: mean survival time, dose: 12.5 mg/kg/injection, schedule: Q01DX009 (ip), vehicle: other
  T/C: 105 % of control
endpoint: mean survival time, dose: 12.5 mg/kg/injection, schedule: Q04DX003 (ip), vehicle: acetone
  T/C: 104 % of control
endpoint: mean survival time, dose: 25.0 mg/kg/injection, schedule: Q01DX009 (ip), vehicle: other
  T/C: 107 % of control
endpoint: mean survival time, dose: 25.0 mg/kg/injection, schedule: Q04DX003 (ip), vehicle: acetone
  T/C: 103 % of control
endpoint: median survival time, dose: 3.13 mg/kg/injection, schedule: Q01DX005 (ip), vehicle: Klucel (hydroxypropylcellulose) (HPC)
  T/C: 102 % of control
endpoint: median survival time, dose: 6.25 mg/kg/injection, schedule: Q01DX005 (ip), vehicle: Klucel (hydroxypropylcellulose) (HPC)
  T/C: 97 % of control
endpoint: median survival time, dose: 12.5 mg/kg/injection, schedule: Q01DX005 (ip), vehicle: Klucel (hydroxypropylcellulose) (HPC)
  T/C: 95 % of control
endpoint: median survival time, dose: 25.0 mg/kg/injection, schedule: Q01DX005 (ip), vehicle: Klucel (hydroxypropylcellulose) (HPC)
  T/C: 98 % of control
endpoint: median survival time, dose: 50.0 mg/kg/injection, schedule: Q01DX005 (ip), vehicle: Klucel (hydroxypropylcellulose) (HPC)
  T/C: 100 % of control

## COc1cc2cc(c1Cl)N(C)C(=O)CC(OC(=O)C(C)N(C)C(=O)C(C)C)C1(C)OC1C(C)C1CC(O)(NC(=O)O1)C(OC)/C=C/C=C(C)C2 (stereo unspecified)
endpoint: mean survival time, dose: 1.2 micrograms/kg/injection, schedule: Q01DX009 (ip), vehicle: saline + alcohol
  T/C: 109 % of control
endpoint: mean survival time, dose: 2.5 micrograms/kg/injection, schedule: Q01DX009 (ip), vehicle: saline + alcohol
  T/C: 113 % of control
endpoint: mean survival time, dose: 5.0 micrograms/kg/injection, schedule: Q01DX009 (ip), vehicle: saline + alcohol
  T/C: 116 % of control
endpoint: mean survival time, dose: 10.0 micrograms/kg/injection, schedule: Q01DX009 (ip), vehicle: saline + alcohol
  T/C: 119 % of control

## CCOC(=O)Nc1cc(NC/C(CCc2ccccc2)=N/O)c([N+](=O)[O-])c(N)n1
endpoint: mean survival time, dose: 100.0 mg/kg/injection, schedule: Q01DX001 (ip), vehicle: Klucel (hydroxypropylcellulose) (HPC)
  T/C: 96 % of control
endpoint: mean survival time, dose: 200.0 mg/kg/injection, schedule: Q01DX001 (ip), vehicle: Klucel (hydroxypropylcellulose) (HPC)
  T/C: 91 % of control
endpoint: mean survival time, dose: 400.0 mg/kg/injection, schedule: Q01DX001 (ip), vehicle: Klucel (hydroxypropylcellulose) (HPC)
  T/C: 90 % of control

## Cc1c2ccccc2c(CN2CC(O)CC2C(=O)O)c2ccc3ccccc3c12 (stereo unspecified)
[3]
  T/C: 102 % of control
[6]
  T/C: 100 % of control
[9]
  T/C: 87 % of control

## CNC(=O)Oc1cccc(NC(=O)OCCC(C)C)c1
[1]
  T/C: 96 % of control
[4]
  T/C: 93 % of control
[7]
  T/C: 96 % of control

## CC(=O)C(CN(C)C)C(C)=O
endpoint: mean survival time, dose: 75.0 mg/kg/injection, schedule: Q01DX001 (ip), vehicle: other
  T/C: 106 % of control
endpoint: mean survival time, dose: 150.0 mg/kg/injection, schedule: Q01DX001 (ip), vehicle: other
  T/C: 106 % of control

## O=C1C=CC(=O)N1c1nccs1
[2]
  T/C: 91 % of control
[5]
  T/C: 95 % of control
[8]
  T/C: 95 % of control

## CC(=O)OCC1OC(n2cnc3c(=S)nc(N)[nH]c32)CC1OC(C)=O (stereo unspecified)
endpoint: mean survival time, dose: 0.63 mg/kg/injection, schedule: Q01DX005 (ip), vehicle: saline with Tween-80
  T/C: 101 % of control
endpoint: mean survival time, dose: 1.25 mg/kg/injection, schedule: Q01DX005 (ip), vehicle: saline with Tween-80
  T/C: 117 % of control
endpoint: mean survival time, dose: 20.0 mg/kg/injection, schedule: Q01DX005 (ip), vehicle: saline with Tween-80
  T/C: 156 % of control

## N#CCC(N)=S
endpoint: mean survival time, dose: 12.5 mg/kg/injection, schedule: Q01DX009 (ip), vehicle: saline with Tween-80
  T/C: 112 % of control
endpoint: mean survival time, dose: 25.0 mg/kg/injection, schedule: Q01DX009 (ip), vehicle: saline with Tween-80
  T/C: 106 % of control
endpoint: mean survival time, dose: 50.0 mg/kg/injection, schedule: Q01DX009 (ip), vehicle: saline with Tween-80
  T/C: 96 % of control

## O=C(O)Cc1ccc(Br)cc1[N+](=O)[O-]
endpoint: mean survival time, dose: 100.0 mg/kg/injection, schedule: Q01DX001 (ip), vehicle: other
  T/C: 104 % of control
endpoint: mean survival time, dose: 200.0 mg/kg/injection, schedule: Q01DX001 (ip), vehicle: other
  T/C: 101 % of control
endpoint: mean survival time, dose: 400.0 mg/kg/injection, schedule: Q01DX001 (ip), vehicle: other
  T/C: 98 % of control
